Results: paper PMC9786103, “Potent and Selective Inhibition of CYP1A2 Enzyme by Obtusifolin and Its Chemopreventive Effects” (Pharmaceutics, 2022)

Columns and labels:
[1] = biological target: T1, CYP1A2 versus CYP2A6, CYP2B6, CYP2C8, CYP2C9, CYP2C19, CYP2D6, CYP2E1, CYP3A (Homo sapiens, UniProt P05177); assay: CYP1A2-mediated phenacetin O-deethylase (POD) activity in pooled human liver microsomes; settings: human, pooled human liver microsomes
T1 sequence (P05177 1-516): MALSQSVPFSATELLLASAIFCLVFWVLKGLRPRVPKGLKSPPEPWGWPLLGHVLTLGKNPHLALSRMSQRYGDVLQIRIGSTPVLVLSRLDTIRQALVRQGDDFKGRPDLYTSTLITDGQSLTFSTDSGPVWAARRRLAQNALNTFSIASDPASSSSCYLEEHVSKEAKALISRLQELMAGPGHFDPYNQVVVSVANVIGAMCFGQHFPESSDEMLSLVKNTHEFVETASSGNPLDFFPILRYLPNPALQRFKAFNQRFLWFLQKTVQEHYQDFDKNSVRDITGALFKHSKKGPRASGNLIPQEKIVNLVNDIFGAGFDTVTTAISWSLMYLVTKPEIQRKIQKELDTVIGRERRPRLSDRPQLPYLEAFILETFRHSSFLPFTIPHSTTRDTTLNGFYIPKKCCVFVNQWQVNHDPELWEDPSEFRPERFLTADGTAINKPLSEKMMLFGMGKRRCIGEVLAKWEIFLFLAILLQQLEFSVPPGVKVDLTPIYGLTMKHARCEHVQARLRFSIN
Procedure: (§1) The inhibitory potential of five major bioactive compounds from Cassiae semen against CYP1A2-mediated phenacetin O-deethylase (POD) activity was evaluated using previously developed methods with minor modifications. Briefly, the compounds were dissolved in methanol. The incubation mixtures containing pHLMs (0.25 mg/mL), phenacetin (100 µM), and inhibitor (0, 0.5, 2, 5, 20, or 50 µM) were pre-incubated at 37 °C for 5 min. An NADPH-generating system (NGS, 1.3 mM β-NADP^+, 3.3 mM G6P, 1.0 U/mL G6PDH, and 3.3 mM magnesium chloride) was introduced after pre-incubation to initiate the reaction, and further incubated for 15 min. The reaction was quenched by the addition of 50 µL ice-cold acetonitrile containing internal standard (IS; 7nM trimipramine). Aliquots of supernatants were analyzed by liquid chromatography–tandem mass spectrometry (LC-MS/MS, LCMS 8060 system, Shimadzu, Kyoto, Japan). All microsomal incubations were repeated three times.
(§2) The inhibitory potential of obtusifolin against the biotransformation of eight P450 probe substrates was examined using previously reported methods with slight changes. The following P450 isoform-specific substrates were used: coumarin (CYP2A6); bupropion (CYP2B6); amodiaquine (CYP2C8); tolbutamide (CYP2C9); omeprazole (CYP2C19); dextromethorphan (CYP2D6); chlorzoxazone (CYP2E1); and midazolam (CYP3A). Mixtures of pooled HLM, P450 substrates, and obtusifolin (0, 0.05, 0.2, 0.5, 2, 5, or 10 µM for CYP1A2; and 0, 0.5, 2, 5, 20, or 50 µM for the other P450 isoforms) were pre-incubated (5 min, 37 °C). NGS was introduced to start the reaction, which was followed by an additional incubation (15 min). Following reaction termination, aliquots of the supernatants were analyzed with LC-MS/MS.
(§3) Reverse phase column (Kinetex XB-C18, 100 × 2.10 mm; Phenomenex, Torrance, CA, USA) and triple-quadrupole mass spectrometer (LCMS 8060, Shimadzu, Kyoto, Japan) with an ultra high-performance LC system (Nexera X2, Shimadzu) analyze all the metabolites. Mobile phases were 0.1% formic acid in water (A) and 0.1% formic acid in acetonitrile (B). The elution condition was as follows: 0–0.5 min (B: 8%), 0.5–5 min (B: 8%→60%), 5–6 min (B: 60%), 6–6.1 min (B: 60%→8%), and 6.1–10 min (B: 8%) for the analysis of metabolites of the nine P450 substrates; and 0–1 min (B: 5%), 1–5 min (B: 5%→90%), and 5.1–7 min (B: 90%→5%) for the analysis of resorufin. Electrospray ionization was performed in the positive- and negative-ion modes at 4.0 and −3.5 kV, respectively. For each metabolite, quantitation was carried out in selected reaction monitoring (SRM) mode using the following precursor-to-product ion transition: m/z 152 > 110 for acetaminophen (CYP1A2), m/z 214 > 186 for resorufin (CYP1A1 and CYP1A2), m/z 163 > 107 for 7-hydroxycoumarin (CYP2A6), m/z 256 > 238 for 6-hydroxybupropion (CYP2B6), m/z 328 > 283 for N-desethylamodiaquine (CYP2C8), m/z 287 > 89 for 5-hydroxytolbutamide (CYP2C9), m/z 362 > 214 for 4-hydroxyomeprazole ([…]), m/z 258 > 157 for dextrorphan (CYP2D6), m/z 184 > 120 for 6-hydroxychlorzoxazone (CYP2E1), m/z 342 > 203 for 1′-hydroxymidazolam (CYP3A), and m/z 295 > 100 for trimipramine (IS).
(§4) WinNonlin software (Pharsight, Mountain View, CA, USA) was used to calculate IC50 values. Based on Lineweaver–Burk double reciprocal plots, secondary plots of Lineweaver–Burk plots versus obtusifolin concentrations, and visual inspection of Dixon plots, the type of inhibition and apparent kinetic parameters for inhibitory activity (Ki) were estimated.

[2] = biological target: T2, CYP1A2 (Homo sapiens, UniProt P05177); assay: as above
T2 sequence (P05177 1-516): T1 sequence (P05177 1-516)
Procedure: as §1, §2, §3, §4

[3] = biological target: T3, CYP2D6 (Homo sapiens, UniProt P10635); assay: Dextromethorphan O-demethylation in human liver microsomes; type: biochemical; settings: HLMs
T3 construct: Mixtures of pooled HLM, P450 substrates, and obtusifolin; tissue XenoTech XTreme 200; host or cells: pooled human liver microsomes
T3 sequence (P10635 whole entry): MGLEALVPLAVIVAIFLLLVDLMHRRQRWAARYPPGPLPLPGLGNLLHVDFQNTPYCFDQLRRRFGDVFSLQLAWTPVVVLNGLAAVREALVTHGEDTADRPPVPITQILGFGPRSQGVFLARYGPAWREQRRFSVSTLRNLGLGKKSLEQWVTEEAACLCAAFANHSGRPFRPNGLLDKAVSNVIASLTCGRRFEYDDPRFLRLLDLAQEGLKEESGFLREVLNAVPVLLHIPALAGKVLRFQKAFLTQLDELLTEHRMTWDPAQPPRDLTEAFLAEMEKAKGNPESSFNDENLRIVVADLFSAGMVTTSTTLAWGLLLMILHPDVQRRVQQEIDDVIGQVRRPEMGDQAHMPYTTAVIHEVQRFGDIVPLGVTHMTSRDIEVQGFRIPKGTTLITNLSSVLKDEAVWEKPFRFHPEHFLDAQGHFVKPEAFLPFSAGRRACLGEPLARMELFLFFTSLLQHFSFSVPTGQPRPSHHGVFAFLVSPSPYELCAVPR
Procedure: The following P450 isoform-specific substrates were used: coumarin (CYP2A6); bupropion (CYP2B6); amodiaquine (CYP2C8); tolbutamide (CYP2C9); omeprazole (CYP2C19); dextromethorphan (CYP2D6); chlorzoxazone (CYP2E1); and midazolam (CYP3A). […] NGS was introduced to start the reaction, which was followed by an additional incubation (15 min). Following reaction termination, aliquots of the supernatants were analyzed with LC-MS/MS.
Reverse phase column (Kinetex XB-C18, 100 × 2.10 mm; Phenomenex, Torrance, CA, USA) and triple-quadrupole mass spectrometer (LCMS 8060, Shimadzu, Kyoto, Japan) with an ultra high-performance LC system (Nexera X2, Shimadzu) analyze all the metabolites. […] For each metabolite, quantitation was carried out in selected reaction monitoring (SRM) mode using the following precursor-to-product ion transition: m/z 152 > 110 for acetaminophen (CYP1A2), m/z 214 > 186 for resorufin (CYP1A1 and CYP1A2), m/z 163 > 107 for 7-hydroxycoumarin (CYP2A6), m/z 256 > 238 for 6-hydroxybupropion (CYP2B6), m/z 328 > 283 for N-desethylamodiaquine (CYP2C8), m/z 287 > 89 for 5-hydroxytolbutamide (CYP2C9), m/z 362 > 214 for 4-hydroxyomeprazole (CYP2C9), m/z 258 > 157 for dextrorphan (CYP2D6), m/z 184 > 120 for 6-hydroxychlorzoxazone (CYP2E1), m/z 342 > 203 for 1′-hydroxymidazolam (CYP3A), and m/z 295 > 100 for trimipramine (IS) [23, 24].

`COc1c(O)c(C)cc2c1C(=O)c1c(O)cccc1C2=O` [Obtusifolin, obtusifolin] showed a selectivity ratio at 15 min [1] of over 150, an IC50 [2] of 190 ± 10 nM and an inhibition at 15 min, 0.5 µM ([2]; human, pooled human liver microsomes, probe phenacetin (100 µM)) of 73.3%. It also gave an IC50 [3] of over 50000 nM.
